Data: ChEMBL document CHEMBL1201862, “PubChem BioAssay data set” (2004)
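All cell lines were grown in 96-well plates and treated with compound for 48 hours. The concentration for 50% growth inhibition is given as GI50.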 Activity calls are given as the source filed them. Cut-off read from the data, not from the text of the source: active = GI50 up to about 1.1 µM and inactive = higher.

Key:
Assay in all cases: NCI anticancer screen, dose series, 48 h
HCT-116 = system: HCT-116
MDA-MB-231 = system: MDA-MB-231
OVCAR-5 = system: OVCAR-5
SF-268 = system: SF-268
NCI-H23 = system: NCI-H23
DU-145 = system: DU-145
OVCAR-3 = system: OVCAR-3
RXF 393 = system: RXF 393
UO-31 = system: UO-31
U-251 = system: U-251
MOLT-4 = system: MOLT-4
NCI/ADR-RES = system: NCI/ADR-RES
NCI-H460 = system: NCI-H460
COLO 205 = system: COLO 205
KM12 = system: KM12
SK-MEL-5 = system: SK-MEL-5
SK-MEL-2 = system: SK-MEL-2
IGROV-1 = system: IGROV-1

| Compound | GI50 (HCT-116) | GI50 (MDA-MB-231) | GI50 (OVCAR-5) | GI50 (SF-268) | GI50 (NCI-H23) | GI50 (DU-145) | GI50 (OVCAR-3) | GI50 (RXF 393) | GI50 (UO-31) | GI50 (U-251) | GI50 (MOLT-4) | GI50 (NCI/ADR-RES) | GI50 (NCI-H460) | GI50 (COLO 205) | GI50 (KM12) | GI50 (SK-MEL-5) | GI50 (SK-MEL-2) | GI50 (IGROV-1) |
| --- | --- | --- | --- | --- | --- | --- | --- | --- | --- | --- | --- | --- | --- | --- | --- | --- | --- | --- |
| N/C(=N\c1ccc(Cl)cc1)NS(=O)(=O)c1c(C(F)(F)F)cccc1C(F)(F)F | 10 µM (inactive) | 22.2 µM (inactive) | 20.2 µM (inactive) | 23.3 µM (inactive) | 5.58 µM (inactive) | 46.5 µM (inactive) | 16.6 µM (inactive) | 45.8 µM (inactive) | 2.29 µM (inactive) | 13.5 µM (inactive) | > 100 µM (inactive) | 12.2 µM (inactive) | 14.5 µM (inactive) | 11.1 µM (inactive) | 4.89 µM (inactive) | 17.5 µM (inactive) | 12.7 µM (inactive) | 16.6 µM (inactive) |
| CC(=O)/C(=C/n1c(=S)[nH]c2ccccc21)C(=O)Nc1ccccc1C | > 100 µM (inactive) | > 100 µM (inactive) | > 100 µM (inactive) | > 100 µM (inactive) | > 100 µM (inactive) | > 100 µM (inactive) | > 100 µM (inactive) | > 100 µM (inactive) | > 100 µM (inactive) | > 100 µM (inactive) | > 100 µM (inactive) | > 100 µM (inactive) | > 100 µM (inactive) | > 100 µM (inactive) | > 100 µM (inactive) | > 100 µM (inactive) | > 100 µM (inactive) | > 100 µM (inactive) |
| N#CC(C#N)=Cc1c[nH]c(=O)[nH]c1=O | > 100 µM (inactive) | > 100 µM (inactive) | > 100 µM (inactive) | > 100 µM (inactive) | > 100 µM (inactive) | > 100 µM (inactive) | > 100 µM (inactive) | > 100 µM (inactive) | > 100 µM (inactive) | > 100 µM (inactive) | 43.1 µM (inactive) | > 100 µM (inactive) | > 100 µM (inactive) | > 100 µM (inactive) | > 100 µM (inactive) | > 100 µM (inactive) | > 100 µM (inactive) | > 100 µM (inactive) |
| O=C1O/C(=C\c2ccccc2)N(c2ccccc2)C1=O | > 100 µM (inactive) | > 100 µM (inactive) | > 100 µM (inactive) | > 100 µM (inactive) | > 100 µM (inactive) | > 100 µM (inactive) | > 100 µM (inactive) | > 100 µM (inactive) | > 100 µM (inactive) | > 100 µM (inactive) | > 100 µM (inactive) | > 100 µM (inactive) | > 100 µM (inactive) | > 100 µM (inactive) | > 100 µM (inactive) | > 100 µM (inactive) | > 100 µM (inactive) | > 100 µM (inactive) |
| CCN(CC)C(=S)N/N=C/c1cc([N+](=O)[O-])ccc1O | 2.75 µM (inactive) | 8.18 µM (inactive) | 24.3 µM (inactive) | 3.66 µM (inactive) | 6.59 µM (inactive) | 4.56 µM (inactive) | 0.0528 µM (active) | 6.97 µM (inactive) | 3.12 µM (inactive) | 4.24 µM (inactive) | 1.8 µM (inactive) | 3.01 µM (inactive) | 3 µM (inactive) | 3.4 µM (inactive) | 4.07 µM (inactive) | 2.02 µM (inactive) | 16.4 µM (inactive) | 3.65 µM (inactive) |
| Cc1cccc(NC(=O)O/N=C(\Cl)C(C)C)c1 | 3.37 µM (inactive) | 17.9 µM (inactive) | 19.4 µM (inactive) | 20 µM (inactive) | 15.1 µM (inactive) | 18.6 µM (inactive) | 6.15 µM (inactive) | 13.9 µM (inactive) | 16.6 µM (inactive) | 20.7 µM (inactive) | 2.15 µM (inactive) | 21.3 µM (inactive) | 16.8 µM (inactive) | 2.01 µM (inactive) | 19.4 µM (inactive) | 16.4 µM (inactive) | 17.7 µM (inactive) | 17.5 µM (inactive) |
| COc1cc2c(cc1OC)C1(c3ccccc3)CN(C2)Cc2cc(OC)c(OC)cc21 | 24.9 µM (inactive) | 24.3 µM (inactive) | 35.6 µM (inactive) | 49.9 µM (inactive) | 24.5 µM (inactive) | 33.7 µM (inactive) | 54.6 µM (inactive) | 22.8 µM (inactive) | 80.9 µM (inactive) | 22.2 µM (inactive) | 25.5 µM (inactive) | 25.4 µM (inactive) | 30.2 µM (inactive) | 17.1 µM (inactive) | 30.8 µM (inactive) | 18.6 µM (inactive) | 25.7 µM (inactive) | 35.2 µM (inactive) |
| Nc1nn2c(nc(N)c3c(N)n[nH]c32)c1/N=N\c1ccc(Br)cc1 | 53.8 µM (inactive) | 0.524 µM (active) | 23.7 µM (inactive) | 7.66 µM (inactive) | > 5.61 µM (inactive) | > 100 µM (inactive) | 32.6 µM (inactive) | > 100 µM (inactive) | > 100 µM (inactive) | 6.01 µM (inactive) | 3.53 µM (inactive) | > 100 µM (inactive) | > 100 µM (inactive) | > 63.2 µM (inactive) | 13.1 µM (inactive) | > 100 µM (inactive) | 12.3 µM (inactive) | 81.8 µM (inactive) |
| NC(=O)CCSC(CC(=O)c1ccc(Cl)cc1)c1ccc(Cl)cc1 (stereo not given) | 14.7 µM (inactive) | 40.2 µM (inactive) | 32.7 µM (inactive) | 27.8 µM (inactive) | 32.4 µM (inactive) | 27.5 µM (inactive) | 19.2 µM (inactive) | 17.9 µM (inactive) | 26.7 µM (inactive) | 16.2 µM (inactive) | 10.4 µM (inactive) | 22.8 µM (inactive) | 35.9 µM (inactive) | 33 µM (inactive) | 6.11 µM (inactive) | 17.2 µM (inactive) | 24.3 µM (inactive) | 16.2 µM (inactive) |
| CCC(C)C1=C(O)[N+]2([O-])Oc3ccc(-c4c(O)c(O)c(-c5ccc(O)cc5)c(OC(C)=O)c4OC(C)=O)cc3OC2(C(C)CC)C(=O)N1O (stereo not given) | 18.2 µM (inactive) | > 50 µM (inactive) | > 50 µM (inactive) | > 50 µM (inactive) | > 50 µM (inactive) | > 50 µM (inactive) | > 50 µM (inactive) | > 50 µM (inactive) | > 50 µM (inactive) | > 50 µM (inactive) | 43.8 µM (inactive) | > 50 µM (inactive) | > 50 µM (inactive) | > 50 µM (inactive) | > 50 µM (inactive) | > 50 µM (inactive) | > 50 µM (inactive) | > 50 µM (inactive) |
| Cc1ccc([S+]([O-])C[C@](NC(=O)OCc2ccccc2)(Sc2ccccc2)C(F)F)cc1 (stereo not given in full) | 16.3 µM (inactive) | 19.4 µM (inactive) | 31.6 µM (inactive) | 16.9 µM (inactive) | 17.7 µM (inactive) | 18.7 µM (inactive) | 24.3 µM (inactive) | 21.7 µM (inactive) | 6.56 µM (inactive) | 17 µM (inactive) | 3.4 µM (inactive) | 17 µM (inactive) | 17.9 µM (inactive) | 19.4 µM (inactive) | 14.6 µM (inactive) | 13.3 µM (inactive) | 27.6 µM (inactive) | 8.69 µM (inactive) |
| CCCCCCc1ccc(C(=O)NO)cc1 | 29.6 µM (inactive) | 95.7 µM (inactive) | 75 µM (inactive) | 25.3 µM (inactive) | 28.3 µM (inactive) | 24.8 µM (inactive) | 30.3 µM (inactive) | 41.2 µM (inactive) | 15.7 µM (inactive) | 38.8 µM (inactive) | 11.7 µM (inactive) | 15.3 µM (inactive) | 25 µM (inactive) | 41.5 µM (inactive) | 44.9 µM (inactive) | 47.1 µM (inactive) | 44.9 µM (inactive) | 24.5 µM (inactive) |
| COC(=O)C1[C@H](C(=O)OC)C1(Br)CBr (stereo not given in full) | > 100 µM (inactive) | > 100 µM (inactive) | > 100 µM (inactive) | > 100 µM (inactive) | > 100 µM (inactive) | > 100 µM (inactive) | > 100 µM (inactive) | > 100 µM (inactive) | > 100 µM (inactive) | > 100 µM (inactive) | 40.1 µM (inactive) | > 100 µM (inactive) | > 100 µM (inactive) | > 100 µM (inactive) | > 100 µM (inactive) | > 100 µM (inactive) | > 100 µM (inactive) | > 100 µM (inactive) |
| CC(=O)NCCc1c[nH]c2ccc(Cl)cc12 | > 100 µM (inactive) | > 100 µM (inactive) | > 100 µM (inactive) | > 100 µM (inactive) | > 100 µM (inactive) | > 100 µM (inactive) | > 100 µM (inactive) | > 100 µM (inactive) | > 100 µM (inactive) | > 100 µM (inactive) | > 100 µM (inactive) | > 100 µM (inactive) | > 100 µM (inactive) | > 100 µM (inactive) | > 100 µM (inactive) | > 100 µM (inactive) | > 100 µM (inactive) | > 100 µM (inactive) |
| Nc1ncnc2c1nc(-c1ccccc1)n2C1OC(CO)C(O)C1O (stereo not given) | > 100 µM (inactive) | > 100 µM (inactive) | > 100 µM (inactive) | > 100 µM (inactive) | > 100 µM (inactive) | > 100 µM (inactive) | > 100 µM (inactive) | > 100 µM (inactive) | > 100 µM (inactive) | > 100 µM (inactive) | > 100 µM (inactive) | > 100 µM (inactive) | > 100 µM (inactive) | > 100 µM (inactive) | 86.7 µM (inactive) | > 100 µM (inactive) | > 100 µM (inactive) | > 100 µM (inactive) |
